Experimental data: PubChem BioAssay AID1963846 (Molecular Pharmacology Branch, DTP, NCI, 2024)

System: 454973-116-R2-J3-PDC complex spheroid viability
Test: Anticancer human tumor 454973-116-R2-J3-PDC patient-derived pancreatic carcinoma cell line growth inhibition [POLQ]
Settings: for IC50: curve of first compound; for viability, T/C: stronger effect = lower value
Description: Multicellular complex tumor spheroid response to Polymerase (POL) inhibitors (novobiocin, ART-558, RP6685) in combination with a variety of drugs and investigational agents in selected tumor cell lines
The POL inhibitors (novobiocin, ART-558, and RP6685) were evaluated both individually and in combination with standard of care and investigational anticancer small molecules within a complex spheroid model of solid tumors. . Complex spheroids include a stromal component modeled by human endothelial cells (HUVEC) and fibroblasts modeled by human mesenchymal stem cells (MSCs). The concentration ranges selected for each drug and investigational agent were based upon clinically achievable concentrations if the clinical Cmax of the agent was known.
Compounds. The drugs and investigational agents: novobiocin (NSC847541), ART-558 (NSC835418), RP-6685 (NSC848927), peposertib (NSC802822), ceralasertib (NSC780249), elimusertib (NSC800525), camonsertib (NSC841442), AZD-1390 (NSC803789), olaparib (NSC753686), talazoparib (NSC767125), rucaparib (NSC756644), sotorasib (NSC818433), MRTX-1133 (NSC836407), SN-38 (NSC673596), topotecan (NSC609699), epotoside (NSC141540), doxorubicin (NSC123127), gemcitabine (NSC613327), 5-fluorouracil (NSC19893), paclitaxel (NSC125973), vemurafenib (NSC761431), MSA-2 (NSC828583), SN-011 (NSC837082), adavosertib (NSC754352), prexasertib (NSC758257), carboplatin (NSC241240) and oxaliplatin (NSC266046), were obtained from the National Cancer Institute (NCI) Developmental Therapeutics Program Chemical Repository (21). The FDA-approved anticancer drug set is available from the Developmental Therapeutics Program at https://dtp.cancer.gov/organization/dscb/obtaining/. […] The stock solutions were prepared in dimethyl sulfoxide (DMSO, Sigma-Aldrich, St. Louis, MO, cat. D2650), except for the platinum compounds which were prepared in saline (Quality Biological, Gaithersburg, MD, cat. 114-055-101), at 800-fold the tested concentration and stored at -70 degrees C prior to their use. All drugs and investigational agents were tested over a range starting from a high concentration at or near the clinical Cmax and decreasing in half-log increments. If the clinical Cmax for an agent had not been determined, the highest concentration tested was 10 microM, except for SN-38, which was tested at a high concentration of 1 microM.
Cell Culture. All cells were maintained in an incubator at 37 degrees C and 5% CO2 with 95% humidity. The PDC lines were cultured according to standard operating procedures established by the NCI PDMR (https://pdmr.cancer.gov). Table 3 of the manuscript, lists the cell lines along with the number of the three cell types plated to form the mct-spheroids and media for tumor cell growth. After thawing, all PDC lines, except 997537-175-T-J1-PDC and 415267-285-R-J2-PDC, were cultured in Matrigel-coated flasks prepared with a working solution of 1X Ham's F-12 nutrient mix, without supplementation (Thermo Fisher Scientific, cat. 11765054), 100 U/mL penicillin-streptomycin (Thermo Fisher Scientific, cat. 15140122), and 2.5% Matrigel (Corning Inc., Corning, NY, cat. 354248) for the first three passages. The two PDC lines 997537-175-T-J1-PDC and 415267-285-R-J2-PDC were cultured on uncoated flasks. The 857933-349-R-J2-PDC line was cultured in 6C/Colon 1B media containing advanced DMEM/F-12 (Thermo Fisher Scientific, cat. 12634028), 10 mM HEPES (Thermo Fisher Scientific, cat. 15630080), 1X GlutaMAX supplement (Thermo Fisher Scientific, cat. 35050061), 0.1 mg/mL primocin (InvivoGen, San Diego, CA, cat. ant-pm-2), 10% defined fetal bovine serum, heat inactivated (HyClone Laboratories Inc., Logan, UT, cat. SH30070.03HI), 50% L-WRN conditioned media (ATCC, cat. CRL-3276), 1.25 mM N-Acetyl-L-cysteine (Sigma-Aldrich, cat. A9165), 10 mM nicotinamide (Sigma-Aldrich, cat. N0636), 1X B-27 supplement (Thermo Fisher Scientific, cat. 17504044), 1X N-2 supplement (Thermo Fisher Scientific, cat. […]

[1] = second compound 0.0316 µM, first compound 0.0316 µM
[2] = second compound 0.0316 µM, first compound 0.1 µM
[3] = second compound 0.0316 µM, first compound 0.316 µM
[4] = second compound 0.0316 µM, first compound 1 µM
[5] = second compound 0.1 µM, first compound 0.0316 µM
[6] = second compound 0.1 µM, first compound 0.1 µM
[7] = second compound 0.1 µM, first compound 0.316 µM
[8] = second compound 0.1 µM, first compound 1 µM
[9] = second compound 0.316 µM, first compound 0.0316 µM
[10] = second compound 0.316 µM, first compound 0.1 µM
[11] = second compound 0.316 µM, first compound 0.316 µM
[12] = second compound 0.316 µM, first compound 1 µM
[13] = second compound 1 µM, first compound 0.0316 µM
[14] = second compound 1 µM, first compound 0.1 µM
[15] = second compound 1 µM, first compound 0.316 µM
[16] = second compound 1 µM, first compound 1 µM
[17] = second compound 3.16 µM, first compound 0.0316 µM
[18] = second compound 3.16 µM, first compound 0.1 µM
[19] = second compound 3.16 µM, first compound 0.316 µM
[20] = second compound 3.16 µM, first compound 1 µM
[21] = second compound 10 µM, first compound 0.0316 µM
[22] = second compound 10 µM, first compound 0.1 µM
[23] = second compound 10 µM, first compound 0.316 µM
[24] = second compound 10 µM, first compound 1 µM
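Note: spheroids exposed to drugs for seven days before measurement.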
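Throughout, for viability, T/C: percent viability relative to DMSO vehicle control wells taken as 100%.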

Compound `C=CCn1c(=O)c2cnc(Nc3ccc(N4CCN(C)CC4)cc3)nc2n1-c1cccc(C(C)(C)O)n1` + COC1C(OC(N)=O)C(O)C(Oc2ccc3c(O)c(NC(=O)c4ccc(O)c(CC=C(C)C)c4)c(=O)oc3c2C)OC1(C)C has an IC50 (second compound 0.0316 µM) of 548 nM, an IC50 (second compound 0.1 µM) of 527 nM and an IC50 (second compound 0.316 µM) of 535 nM. For the same compound, the IC50 (second compound 1 µM) was 549 nM, the IC50 (second compound 3.16 µM) was 596 nM and the IC50 (second compound 10 µM) was 571 nM. It also gave a viability, T/C (second compound 0.0316 µM, first compound 0.00316 µM) of 107%, a viability, T/C (second compound 0.0316 µM, first compound 0.01 µM) of 98.3% and a viability, T/C [1] of 102%. The viability, T/C [2] was 95.5%, the viability, T/C [3] was 81.2% and the viability, T/C [4] was 16.6%. For the same compound, the viability, T/C (second compound 0.1 µM, first compound 0.00316 µM) was 99.7%, the viability, T/C (second compound 0.1 µM, first compound 0.01 µM) was 104% and the viability, T/C [5] was 102%. The viability, T/C [6] was 103%, the viability, T/C [7] was 76.1% and the viability, T/C [8] was 17.3%. For the same compound, the viability, T/C (second compound 0.316 µM, first compound 0.00316 µM) was 102%, the viability, T/C (second compound 0.316 µM, first compound 0.01 µM) was 104% and the viability, T/C [9] was 104%. It also gave a viability, T/C [10] of 103%, a viability, T/C [11] of 74.7% and a viability, T/C [12] of 20.5%. The viability, T/C (second compound 1 µM, first compound 0.00316 µM) was 112%, the viability, T/C (second compound 1 µM, first compound 0.01 µM) was 101% and the viability, T/C [13] was 105%. The viability, T/C [14] was 104%, the viability, T/C [15] was 79.2% and the viability, T/C [16] was 18.2%. For the same compound, the viability, T/C (second compound 3.16 µM, first compound 0.00316 µM) was 104%, the viability, T/C (second compound 3.16 µM, first compound 0.01 µM) was 106% and the viability, T/C [17] was 111%. The viability, T/C [18] was 110%, the viability, T/C [19] was 86.8% and the viability, T/C [20] was 19.8%. It also gave a viability, T/C (second compound 10 µM, first compound 0.00316 µM) of 101%, a viability, T/C (second compound 10 µM, first compound 0.01 µM) of 98.8% and a viability, T/C [21] of 99.5%. It also gave a viability, T/C [22] of 105%, a viability, T/C [23] of 82.9% and a viability, T/C [24] of 18.8%.

In the case of `CC1COCCN1c1cc(-c2ccnn2C)c2ccnc(-c3ccn[nH]3)c2n1` (centres undefined) + COC1C(OC(N)=O)C(O)C(Oc2ccc3c(O)c(NC(=O)c4ccc(O)c(CC=C(C)C)c4)c(=O)oc3c2C)OC1(C)C, the IC50 (second compound 0.0316 µM) is reported as 205 nM, the IC50 (second compound 0.1 µM) is reported as 217 nM and the IC50 (second compound 0.316 µM) is reported as 209 nM. It also gave an IC50 (second compound 1 µM) of 220 nM, an IC50 (second compound 3.16 µM) of 223 nM and an IC50 (second compound 10 µM) of 198 nM. It also gave a viability, T/C [1] of 97%, a viability, T/C [2] of 71.8% and a viability, T/C [3] of 38.5%. The viability, T/C [4] was 19.2%, the viability, T/C (second compound 0.0316 µM, first compound 3.16 µM) was 22.8% and the viability, T/C (second compound 0.0316 µM, first compound 10 µM) was 25.9%. The viability, T/C [5] was 97.3%, the viability, T/C [6] was 75.7% and the viability, T/C [7] was 38%. The viability, T/C [8] was 21.9%, the viability, T/C (second compound 0.1 µM, first compound 3.16 µM) was 20.1% and the viability, T/C (second compound 0.1 µM, first compound 10 µM) was 23.9%. For the same compound, the viability, T/C [9] was 97.8%, the viability, T/C [10] was 77.2% and the viability, T/C [11] was 35.4%. It also gave a viability, T/C [12] of 21.2%, a viability, T/C (second compound 0.316 µM, first compound 3.16 µM) of 23.2% and a viability, T/C (second compound 0.316 µM, first compound 10 µM) of 29.6%. The viability, T/C [13] was 103%, the viability, T/C [14] was 79% and the viability, T/C [15] was 37.8%. For the same compound, the viability, T/C [16] was 18.8%, the viability, T/C (second compound 1 µM, first compound 3.16 µM) was 23.2% and the viability, T/C (second compound 1 µM, first compound 10 µM) was 26.6%. It also gave a viability, T/C [17] of 100%, a viability, T/C [18] of 77.9% and a viability, T/C [19] of 39%. The viability, T/C [20] was 20.4%, the viability, T/C (second compound 3.16 µM, first compound 3.16 µM) was 26.1% and the viability, T/C (second compound 3.16 µM, first compound 10 µM) was 27.9%. The viability, T/C [21] was 105%, the viability, T/C [22] was 70.8% and the viability, T/C [23] was 38%. For the same compound, the viability, T/C [24] was 16.7%, the viability, T/C (second compound 10 µM, first compound 3.16 µM) was 25.9% and the viability, T/C (second compound 10 µM, first compound 10 µM) was 33.7%.
